According to ChEMBL document CHEMBL4627352, “New acrylamide-sulfisoxazole conjugates as dihydropteroate synthase inhibitors” (Bioorg Med Chem, 2020):
In brackets after ≈: the same amount, converted by molar mass. Activity calls are given as the source filed them. The rule behind the calls is not given here.

Legend:
[1] = system: Syncephalastrum racemosum; assay: Inhibition of DHPS in Syncephalastrum racemosum assessed as antifungal activity by measuring inhibition zone at 5 mg/mL incubated for 48 hrs by disk diffusion method
[2] = system: hTERT-BJ; assay: Cytotoxicity against human hTERT-BJ1 cells at 50 uM by acid phosphatase assay relative to control; assay type: cell-based
[3] = system: Escherichia coli ATCC 25922; assay: Inhibition of DHPS in Escherichia coli ATCC 25922 assessed as inhibition of bacterial growth incubated for 24 hrs in presence of folate precursor, pABA by microbroth dilution method
[4] = system: Geotrichum candidum; assay: Inhibition of DHPS in Geotrichum candidum assessed as antifungal activity by measuring inhibition zone at 5 mg/mL incubated for 48 hrs by disk diffusion method
[5] = system: Staphylococcus epidermidis; assay: Inhibition of DHPS in Staphylococcus epidermidis assessed as antibacterial activity by measuring inhibition of bacterial growth incubated for 24 hrs by microbroth dilution method
[6] = system: Proteus vulgaris; assay: Inhibition of DHPS in Proteus vulgaris assessed as antibacterial activity by measuring inhibition zone at 5 mg/mL incubated for 24 hrs by disk diffusion method
[7] = system: Klebsiella pneumoniae; assay: Inhibition of DHPS in Klebsiella pneumoniae assessed as antibacterial activity by measuring inhibition of bacterial growth incubated for 24 hrs by microbroth dilution method
[8] = system: Syncephalastrum racemosum; assay: Inhibition of DHPS in Syncephalastrum racemosum assessed as antifungal activity by measuring inhibition of fungal growth incubated for 48 hrs by microbroth dilution method
[9] = system: Staphylococcus epidermidis; assay: Inhibition of DHPS in Staphylococcus epidermidis assessed as antibacterial activity by measuring inhibition zone at 5 mg/mL incubated for 24 hrs by disk diffusion method
[10] = system: Escherichia coli; assay: Inhibition of DHPS in Escherichia coli assessed as antibacterial activity by measuring inhibition zone at 5 mg/mL incubated for 24 hrs by disk diffusion method
[11] = system: Geotrichum candidum; assay: Inhibition of DHPS in Geotrichum candidum assessed as antifungal activity by measuring inhibition of fungal growth incubated for 48 hrs by microbroth dilution method
[12] = system: Escherichia coli; assay: Inhibition of DHPS in Escherichia coli assessed as antibacterial activity by measuring inhibition of bacterial growth incubated for 24 hrs by microbroth dilution method
[13] = system: Bacillus subtilis; assay: Inhibition of DHPS in Bacillus subtilis assessed as antibacterial activity by measuring inhibition of bacterial growth incubated for 24 hrs by microbroth dilution method
[14] = system: Aspergillus fumigatus; assay: Inhibition of DHPS in Aspergillus fumigatus assessed as antifungal activity by measuring inhibition of fungal growth incubated for 48 hrs by microbroth dilution method
[15] = system: Klebsiella pneumoniae; assay: Inhibition of DHPS in Klebsiella pneumoniae assessed as antibacterial activity by measuring inhibition zone at 5 mg/mL incubated for 24 hrs by disk diffusion method
[16] = system: Aspergillus fumigatus; assay: Potency index, ratio of sulfisoxazole MIC to compound MIC for Aspergillus fumigatus assessed as inhibition of DHPS-mediated fungal growth incubated for 48 hrs by microbroth dilution method
[17] = system: Escherichia coli ATCC 25922; assay: Inhibition of DHPS in Escherichia coli ATCC 25922 assessed as inhibition of bacterial growth incubated for 24 hrs in presence of folate dependent metabolite, methionine by microbroth dilution method
[18] = system: Syncephalastrum racemosum; assay: Potency index, ratio of sulfisoxazole MIC to compound MIC for Syncephalastrum racemosum assessed as inhibition of DHPS-mediated fungal growth incubated for 48 hrs by microbroth dilution method
[19] = system: Streptococcus pneumoniae; assay: Inhibition of DHPS in Streptococcus pneumoniae assessed as antibacterial activity by measuring inhibition of bacterial growth incubated for 24 hrs by microbroth dilution method
[20] = system: Aspergillus fumigatus; assay: Inhibition of DHPS in Aspergillus fumigatus assessed as antifungal activity by measuring inhibition zone at 5 mg/mL incubated for 48 hrs by disk diffusion method
[21] = system: Streptococcus pneumoniae; assay: Inhibition of DHPS in Streptococcus pneumoniae assessed as antibacterial activity by measuring inhibition zone at 5 mg/mL incubated for 24 hrs by disk diffusion method
[22] = system: Bacillus subtilis; assay: Inhibition of DHPS in Bacillus subtilis assessed as antibacterial activity by measuring inhibition zone at 5 mg/mL incubated for 24 hrs by disk diffusion method
[23] = system: Klebsiella pneumoniae; assay: Potency index, ratio of sulfisoxazole MIC to compound MIC for Klebsiella pneumoniae assessed as inhibition of DHPS-mediated bacterial growth incubated for 24 hrs by microbroth dilution method
[24] = system: Proteus vulgaris; assay: Inhibition of DHPS in Proteus vulgaris assessed as antibacterial activity by measuring inhibition of bacterial growth incubated for 24 hrs by microbroth dilution method
[25] = system: Geotrichum candidum; assay: Potency index, ratio of sulfisoxazole MIC to compound MIC for Geotrichum candidum assessed as inhibition of DHPS-mediated fungal growth incubated for 48 hrs by microbroth dilution method
[26] = system: Escherichia coli; assay: Potency index, ratio of sulfisoxazole MIC to compound MIC for Escherichia coli assessed as inhibition of DHPS-mediated bacterial growth incubated for 24 hrs by microbroth dilution method
[27] = system: Syncephalastrum racemosum; assay: Potency index, ratio of amphotericin B MIC to compound MIC for Syncephalastrum racemosum assessed as inhibition of DHPS-mediated fungal growth incubated for 48 hrs by microbroth dilution method
[28] = system: Staphylococcus epidermidis; assay: Potency index, ratio of sulfisoxazole MIC to compound MIC for Staphylococcus epidermidis assessed as inhibition of DHPS-mediated bacterial growth incubated for 24 hrs by microbroth dilution method
[29] = system: Bacillus subtilis; assay: Potency index, ratio of sulfisoxazole MIC to compound MIC for Bacillus subtilis assessed as inhibition of DHPS-mediated bacterial growth incubated for 24 hrs by microbroth dilution method
[30] = system: Bacillus subtilis; assay: Potency index, ratio of ampicillin MIC to compound MIC for Bacillus subtilis assessed as inhibition of DHPS-mediated bacterial growth incubated for 24 hrs by microbroth dilution method
[31] = system: Escherichia coli; assay: Potency index, ratio of gentamycin MIC to compound MIC for Escherichia coli assessed as inhibition of DHPS-mediated bacterial growth incubated for 24 hrs by microbroth dilution method

Structure (SMILES) | inhibition zone (IZ) [1] | inhibition [3] | inhibition zone (IZ) [4] | MIC [5] | inhibition zone (IZ) [6] | MIC [7] | MIC [8] | inhibition zone (IZ) [9] | inhibition zone (IZ) [10] | MIC [11] | MIC [12] | MIC [13] | MIC [14] | inhibition zone (IZ) [15] | inhibition [17] | MIC [19] | inhibition zone (IZ) [20] | inhibition zone (IZ) [21] | inhibition zone (IZ) [22] | MIC [24] | also measured
CN/C(S[C@@H]1O[C@H](COC(C)=O)[C@H](OC(C)=O)[C@H](OC(C)=O)[C@H]1OC(C)=O)=C(/C#N)C(=O)Nc1ccc(S(=O)(=O)Nc2onc(C)c2C)cc1 | 15.1 mm | inactive | 16.9 mm | 62.5 µg/mL (≈ 84.7 µM) | 11.8 mm | 31.2 µg/mL (≈ 42.4 µM) | 62.5 µg/mL (≈ 84.7 µM) | 15.4 mm | 16.3 mm | 62.5 µg/mL (≈ 84.7 µM) | 15.6 µg/mL (≈ 21.2 µM) | 15.6 µg/mL (≈ 21.2 µM) | 31.2 µg/mL (≈ 42.4 µM) | 17.1 mm | inactive | 15.6 µg/mL (≈ 21.2 µM) | 16.3 mm | 17.3 mm | 16.8 mm |  | Activity [2]: 26%; Ratio [16]: 1 to 3; Ratio [18]: 1 to 3
C=CCN/C(S[C@@H]1O[C@H](COC(C)=O)[C@H](OC(C)=O)[C@H](OC(C)=O)[C@H]1OC(C)=O)=C(/C#N)C(=O)Nc1ccc(S(=O)(=O)Nc2onc(C)c2C)cc1 | 17.2 mm | inactive | 20.2 mm | 15.6 µg/mL (≈ 20.5 µM) | 15.2 mm | 0.98 µg/mL (≈ 1.28 µM) | 15.6 µg/mL (≈ 20.5 µM) | 17.1 mm | 18.3 mm | 3.9 µg/mL (≈ 5.11 µM) | 7.81 µg/mL (≈ 10.2 µM) | 0.98 µg/mL (≈ 1.28 µM) | 7.81 µg/mL (≈ 10.2 µM) | 21.2 mm | inactive | 3.9 µg/mL (≈ 5.11 µM) | 18.3 mm | 19.3 mm | 20.8 mm | 62.5 µg/mL (≈ 81.8 µM) | Activity [2]: 28.6%; Ratio [23]: 4; Ratio [25]: 2; Ratio [16]: 1 to 3; Ratio [26]: 3; Ratio [18]: 1 to 3
CCN/C(S[C@@H]1O[C@H](COC(C)=O)[C@H](OC(C)=O)[C@H](OC(C)=O)[C@H]1OC(C)=O)=C(/C#N)C(=O)Nc1ccc(S(=O)(=O)Nc2onc(C)c2C)cc1 | 15.9 mm | inactive | 18.3 mm | 31.2 µg/mL (≈ 41.6 µM) | 13.4 mm | 7.81 µg/mL (≈ 10.4 µM) | 31.2 µg/mL (≈ 41.6 µM) | 16.3 mm | 17.1 mm | 31.2 µg/mL (≈ 41.6 µM) | 7.81 µg/mL (≈ 10.4 µM) | 7.8 µg/mL (≈ 10.4 µM) | 15.6 µg/mL (≈ 20.8 µM) | 19.8 mm | inactive | 7.8 µg/mL (≈ 10.4 µM) | 17.2 mm | 18.9 mm | 17.6 mm | 125 µg/mL (≈ 166 µM) | Ratio [16]: 1 to 3; Ratio [26]: 3; Ratio [18]: 1 to 3
C=CCN/C(S)=C(/C#N)C(=O)Nc1ccc(S(=O)(=O)Nc2onc(C)c2C)cc1 | 20.4 mm | inactive | 25.2 mm | 3.9 µg/mL (≈ 9 µM) | 20.1 mm | 0.49 µg/mL (≈ 1.13 µM) | 3.9 µg/mL (≈ 9 µM) | 20.1 mm | 21.2 mm | 0.24 µg/mL (≈ 0.554 µM) | 1.95 µg/mL (≈ 4.5 µM) | 0.49 µg/mL (≈ 1.13 µM) | 0.49 µg/mL (≈ 1.13 µM) | 24.2 mm | inactive | 0.98 µg/mL (≈ 2.26 µM) | 22.3 mm | 21.7 mm | 23.8 mm | 3.9 µg/mL (≈ 9 µM) | Ratio [23]: 4; Ratio [27]: 2; Ratio [25]: 6; Ratio [28]: 2; Ratio [16]: 7; Ratio [29]: 2
CCN/C(SCC)=C(/C#N)C(=O)Nc1ccc(S(=O)(=O)Nc2onc(C)c2C)cc1 | 20.3 mm | inactive | 20.4 mm | 0.49 µg/mL (≈ 1.09 µM) | 19.6 mm | 0.49 µg/mL (≈ 1.09 µM) | 3.9 µg/mL (≈ 8.68 µM) | 22.8 mm | 20.6 mm | 3.9 µg/mL (≈ 8.68 µM) | 1.95 µg/mL (≈ 4.34 µM) | 0.12 µg/mL (≈ 0.267 µM) | 0.98 µg/mL (≈ 2.18 µM) | 23.2 mm | inactive | 0.12 µg/mL (≈ 0.267 µM) | 21.6 mm | 24.3 mm | 26.3 mm | 3.9 µg/mL (≈ 8.68 µM) | Activity [2]: 8.5%; Ratio [27]: 2; Ratio [30]: 2
C=CCN/C(SCC)=C(/C#N)C(=O)Nc1ccc(S(=O)(=O)Nc2onc(C)c2C)cc1 | 22.4 mm | inactive | 22.1 mm | 0.25 µg/mL (≈ 0.542 µM) | 20.7 mm | 0.25 µg/mL (≈ 0.542 µM) | 0.98 µg/mL (≈ 2.12 µM) | 24.2 mm | 21.8 mm | 1.95 µg/mL (≈ 4.22 µM) | 0.98 µg/mL (≈ 2.12 µM) | 0.12 µg/mL (≈ 0.26 µM) | 0.49 µg/mL (≈ 1.06 µM) | 24.7 mm | inactive | 0.12 µg/mL (≈ 0.26 µM) | 22.9 mm | 24.9 mm | 26.8 mm | 3.9 µg/mL (≈ 8.45 µM) | Ratio [27]: 3; Ratio [31]: 2; Ratio [30]: 2
